Measured values taken from patent EP0103381B1, “Substituted anthra(1,9-cd)pyrazol-6(2H)-ones” (WARNER-LAMBERT COMPANY, priority 1982, dated 1984).
Counter-ions that a name gives are not always drawn. Like-named read-outs stand apart in the source and are kept apart here.

What was measured:
[1] = system: HCT-8 (human colon adenocarcinoma) cells; assay: in vitro activity against human colon adenocarcinoma (HCT-8), cell count; type: cell-based
Experimental: HCT-8 (human colon adenocarcinoma) cells are trypsinized using Trypsin-EDTA. A single cell suspension is achieved by passing the cells through a 26 gauge needle with a 20 cc syringe. A cell suspension is prepared using RPMI 1640 growth medium (available from Gibco Laboratories) +10% fetal calf serum +50 µg/ml garamycin with a cell concentration of approximately 30,000 cells/ml. The cell suspension is dispensed in Linbro 24-well plates; 1 ml/well. The plates are incubated for approximately 48 hrs at 37°C in a 5% C02 atmosphere. At this time test compounds are added in the appropriate concentration. Five µl of the 200 µg/ml stock solution is added to each well in a primary test. Ten pl of the appropriate dilution is added to each well for a titration test. The plates are reincubated an additional 60-65 hrs at 37°C in a 5% C02 atmosphere. The test is read by lysing the cells using a mix of cationic surfactant, glacial acetic acid and sodium chloride. […] of the lysed cell suspension from each well is added to 8 ml of diluent. Each sample is read with a Coulter counter (ZBI model). The activity of each sample is measured as a percentage of the controls and the data is reported as ID50, that is the molar quantity of drug required to kill 50% of the tumor cells.

Penicillium avellaneum = assay: agar plate paper-disc inhibition zone screening; type: cell-based; details: Hamigera avellanea; Dose 3.0 mg/ml; read-out: Inhibition Zone Diameter mm (Dose mg/ml) P. Avellaneum
How it was run: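 Mycelia and spores from a six-day 28°C agar culture, suspended in saline with 0.05% Tween 80 at 20% transmittancy, were seeded into molten agar trays. Compounds at 3,000, 1,000, 500, 100 and 10 mcg/ml (solvent <10%) were applied on 12.7 mm paper discs. After at least 20-24 h incubation, inhibition zone diameter was measured in mm.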

Streptococcus faecalis = assay: agar plate paper-disc inhibition zone screening; type: cell-based; details: Enterococcus faecalis, read-out: Inhibition Zone Diameter mm (Dose mg/ml) S. Faecalis; for zone of inhibition at 500 µg/mL: Dose 0.5 mg/ml; for zone of inhibition at 3000 µg/mL: Dose 3.0 mg/ml
How it was run: (§1)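 Inoculum: saline suspension, 20-35% transmittancy, in molten agar. Discs 12.7 mm, compound 3,000/1,000/500/100/10 mcg/ml, solvent <10%. 37°C, 18-20 h; zone diameter in mm.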

Aerobacter aerogenes = assay: agar plate paper-disc inhibition zone screening; type: cell-based; details: Klebsiella aerogenes, read-out: Inhibition Zone Diameter mm (Dose mg/ml) A. Aerogenes; for zone of inhibition at 500 µg/mL: Dose 0.5 mg/ml; for zone of inhibition at 3000 µg/mL: Dose 3.0 mg/ml
How it was run: as §1

Escherichia coli = assay: agar plate paper-disc inhibition zone screening; type: cell-based; details: read-out: Inhibition Zone Diameter mm (Dose mg/ml) E. Coli; for zone of inhibition at 1000 µg/mL: Dose 1.0 mg/ml; for zone of inhibition at 3000 µg/mL: Dose 3.0 mg/ml
How it was run: as §1

Bacillus subtilis = assay: agar plate paper-disc inhibition zone screening; type: cell-based; details: read-out: Inhibition Zone Diameter mm (Dose mg/ml) B. Subtilis; for zone of inhibition at 100 µg/mL: Dose 0.1 mg/ml; for zone of inhibition at 3000 µg/mL: Dose 3.0 mg/ml
How it was run: as §1

[2] = system: lymphocytic leukemia P388; assay: in vivo lymphocytic leukemia P388 test; parameters: species or system mice; details: Mus musculus, P388, ip, 720 h, two single doses four days apart, read-out: T/C × 100 (Percent); for response vs control in vivo at 3.12 mg/kg: P388, Dose 3.12 mg/kg intraperitoneally; for response vs control in vivo at 12.5 mg/kg: P388, Dose 12.5 mg/kg intraperitoneally; for response vs control in vivo at 25 mg/kg: P388, Dose 25 mg/kg intraperitoneally; for response vs control in vivo at 50 mg/kg: P388, Dose 50 mg/kg intraperitoneally; for response vs control in vivo at 100 mg/kg: P388, Dose 100 mg/kg intraperitoneally; for response vs control in vivo at 6.25 mg/kg: P388, Dose 6.25 mg/kg intraperitoneally
How it was run: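 CD2F mice (6–7 per group) were inoculated intraperitoneally with P388 leukemia ascitic cells. Compounds were then given i.p. as two doses four days apart at various levels. Survival over 30 days was expressed as treated/control time ratio, efficacy criterion T/C×100 >125%.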

[3] = HCT-8 human colon adenocarcinoma cells, 60-65 hrs incubation with compound, Coulter counter cell count as percentage of controls, read-out: ID50 (the source's name)
[4] = Homo sapiens, HCT-8 cells, 60-65 hrs with compound, molar quantity of drug required to kill 50% of the tumor cells, read-out: ID50 Molar

O=C1c2cccc(O)c2-c2nn(CCNCCO)c3ccc(NCCNCCO)c1c23
IC50 [1, 3]: 1100 nM

CNCCNc1ccc2c3c(nn2CCNCCO)-c2cccc(O)c2C(=O)c13
IC50 [1, 3]: 27 nM

O=C1c2c(O)cccc2-c2nn(CCNCCO)c3ccc(NCCNCCO)c1c23
IC50 [1, 3]: 61 nM

NCCn1nc2c3c(c(NCCCNCCO)ccc31)C(=O)c1c(O)ccc(O)c1-2
IC50 [1, 3]: 280 nM

NCCCNc1ccc2c3c(nn2CCN)-c2c(O)ccc(O)c2C(=O)c13
IC50 [1, 3]: 850 nM

CNCCNc1ccc2c3c(nn2CCNCCO)-c2c(O)ccc(O)c2C(=O)c13
IC50 [1, 3]: 400 nM

CN(CCO)CCn1nc2c3c(c(NCCNCCO)ccc31)C(=O)c1c(O)ccc(O)c1-2
IC50 [1, 3]: 450 nM

CCN(CC)CC(O)Cn1nc2c3c(c(NCCN)ccc31)C(=O)c1c(O)ccc(O)c1-2 (stereo not shown)
IC50 [1, 3]: 460 nM

CCN(CC)CC(O)Cn1nc2c3c(c(NCCNCCO)ccc31)C(=O)c1c(O)ccc(O)c1-2 (stereo not shown)
IC50 [1, 3]: 690 nM

CCN(CC)CCn1nc2c3c(c(NCCNC)ccc31)C(=O)c1c(O)ccc(O)c1-2
IC50 [1, 3]: 120 nM

CN1CCN(c2ccc3c4c(nn3CCNCCO)-c3c(O)ccc(O)c3C(=O)c24)CC1
IC50 [1, 3]: 540 nM

CN(C)CCn1nc2c3c(c(NCCNCCO)ccc31)C(=O)c1c(O)ccc(O)c1-2
IC50 [1, 3]: 180 nM

NCCNc1ccc2c3c(nn2CCN)-c2c(O)ccc(O)c2C(=O)c13 [7,10-(OH)2; (CH2)2NH2·2HCl; NH(CH2)2NH2]
IC50 [1, 3]: 910 nM

CN(C)CCn1nc2c3c(c(NCCN)ccc31)C(=O)c1c(O)ccc(O)c1-2 [7,10-(OH)2; (CH2)2NMe2·2HCl; NH(CH2)2NH2]
IC50 [1, 3]: 140 nM

CN(C)CCn1nc2c3c(c(NCCCN)ccc31)C(=O)c1c(O)ccc(O)c1-2 [7,10-(OH)2; (CH2)2NMe2·2HCl; NH(CH2)3NH2]
IC50 [1, 3]: 1100 nM

CN(C)CCNc1ccc2c3c(nn2CCO)-c2c(O)ccc(O)c2C(=O)c13 [7,10-(OH)2; (CH2)2OH·HCl; NH(CH2)2NMe2]
IC50 [1, 3]: 170 nM

CN(C)CCCn1nc2c3c(c(NCCCN)ccc31)C(=O)c1c(O)ccc(O)c1-2 [7,10-(OH)2; (CH2)3NMe2·2HCl; NH(CH2)3NH2]
IC50 [1, 3]: 350 nM

CCN(CC)CCNc1ccc2c3c(nn2CCN(CC)CC)-c2ccccc2C(=O)c13 [Example 1]
zone of inhibition at 3000 µg/mL (Penicillium avellaneum): 19 mm | zone of inhibition at 500 µg/mL (Streptococcus faecalis): 14 mm | zone of inhibition at 500 µg/mL (Aerobacter aerogenes): 19 mm | zone of inhibition at 1000 µg/mL (Escherichia coli): 15 mm | zone of inhibition at 100 µg/mL (Bacillus subtilis): 15 mm | IC50 [1, 4]: 140 nM

CCN(CC)CCn1nc2c3c(c(NCCN)ccc31)C(=O)c1ccccc1-2 [Example 3, 5-[(2-Aminoethyl)amino]-2-[2-(diethylamino)ethyl]anthra[1,9-cd]pyrazol-6(2H)-one]
zone of inhibition at 3000 µg/mL (Penicillium avellaneum): 16 mm | zone of inhibition at 500 µg/mL (Streptococcus faecalis): 17 mm | zone of inhibition at 500 µg/mL (Aerobacter aerogenes): 14 mm | zone of inhibition at 1000 µg/mL (Escherichia coli): 14 mm | zone of inhibition at 100 µg/mL (Bacillus subtilis): 15 mm | IC50 [1, 4]: 52 nM

CCN(CC)CCCNc1ccc2c3c(nn2CCN(CC)CC)-c2ccccc2C(=O)c13 [Example 5, 2-[2-(Diethylamino)ethyl]-5-[[3-(diethylamino)propyl]amino]anthra[1,9-cd]pyrazol-6(2H)-one]
zone of inhibition at 3000 µg/mL (Penicillium avellaneum): 15 mm | zone of inhibition at 1000 µg/mL (Streptococcus faecalis; Dose 1.0 mg/ml): 14 mm | zone of inhibition at 100 µg/mL (Aerobacter aerogenes; Dose 0.1 mg/ml): 20 mm | zone of inhibition at 3000 µg/mL (Escherichia coli): 15 mm | zone of inhibition at 1000 µg/mL (Bacillus subtilis; Dose 1.0 mg/ml): 25 mm | IC50 [1, 4]: 180 nM

Cn1nc2c3c(c(NCCNCCO)ccc31)C(=O)c1c(O)ccc(O)c1-2 [Example 41, 7,10-Dihydroxy-5-[[2-[(2-hydroxyethyl)amino]ethyl]amino]-2-methylanthra[1,9-cd]pyrazol-6(2H)-one]
response vs control in vivo at 3.12 mg/kg [2]: 138% | response vs control in vivo at 12.5 mg/kg [2]: 140% | response vs control in vivo at 25 mg/kg [2]: 150% | response vs control in vivo at 50 mg/kg [2]: 162% | response vs control in vivo at 100 mg/kg [2]: 174% | IC50 [1, 4]: 790 nM

NCCn1nc2c3c(c(NCCNCCO)ccc31)C(=O)c1c(O)ccc(O)c1-2 [Example 71, 2-(2-Aminoethyl)-7,10-dihydroxy-5-[[2-[(2-hydroxyethyl)amino]ethyl]amino]anthra[1,9-cd]pyrazol-6(2H)-one]
response vs control in vivo at 1.56 mg/kg ([2]; P388, Dose 1.56 mg/kg intraperitoneally): 153% | response vs control in vivo at 3.12 mg/kg [2]: 160% | response vs control in vivo at 6.25 mg/kg [2]: 163% | response vs control in vivo at 12.5 mg/kg [2]: 182% | response vs control in vivo at 25 mg/kg [2]: 257% | IC50 [1, 3]: 1700 nM

CN(C)CCNCCNc1ccc2c3c(nn2CCN)-c2c(O)ccc(O)c2C(=O)c13 [Example 74, 2-[2-Aminoethyl)-5-[[2-[[2-(dimethylamino)ethyl]amino]ethyl]amino]-7,10-dihydroxyanthra[1,9-cd]pyrazol-6(2H)-one]
zone of inhibition at 3000 µg/mL (Penicillium avellaneum): 0 mm | response vs control in vivo at 12.5 mg/kg [2]: 186% | response vs control in vivo at 25 mg/kg [2]: 192% | response vs control in vivo at 50 mg/kg [2]: 220% | zone of inhibition at 3000 µg/mL (Streptococcus faecalis): 0 mm | zone of inhibition at 3000 µg/mL (Bacillus subtilis): 16 mm | IC50 [1, 3]: 1200 nM

COCCn1nc2c3c(c(NCCNCCO)ccc31)C(=O)c1c(O)ccc(O)c1-2 [Example 76, 7,10-Dihydroxy-5-[[2-[(2-hydroxyethyl)amino]ethyl]amino]-2-(2-methoxyethyl)anthra[1,9-cd]pyrazol-6(2H)-one]
zone of inhibition at 3000 µg/mL (Penicillium avellaneum): 0 mm | response vs control in vivo at 12.5 mg/kg [2]: 127% | response vs control in vivo at 25 mg/kg [2]: 127% | response vs control in vivo at 50 mg/kg [2]: 135% | response vs control in vivo at 100 mg/kg [2]: 139% | zone of inhibition at 3000 µg/mL (Streptococcus faecalis): 0 mm | zone of inhibition at 3000 µg/mL (Aerobacter aerogenes): 14 mm | zone of inhibition at 1000 µg/mL (Escherichia coli): 14 mm | zone of inhibition at 3000 µg/mL (Bacillus subtilis): 14 mm

NCCCn1nc2c3c(c(NCCNCCO)ccc31)C(=O)c1c(O)ccc(O)c1-2 [Example 90, 2-(3-Aminopropyl)-7,10-dihydroxy-5-[[2-[(2-hydroxyethyl)amino]ethyl]amino]anthra[1,9-cd]pyrazol-6(2H)-one]
zone of inhibition at 3000 µg/mL (Penicillium avellaneum): 0 mm | response vs control in vivo at 25 mg/kg [2]: 285% | response vs control in vivo at 50 mg/kg [2]: 285% | zone of inhibition at 3000 µg/mL (Streptococcus faecalis): 0 mm | zone of inhibition at 3000 µg/mL (Bacillus subtilis): 16 mm | IC50 [1, 3]: 770 nM

CNCCn1nc2c3c(c(NCCNCCO)ccc31)C(=O)c1c(O)ccc(O)c1-2 [Example 93, 7,10-Dihydroxy-5-[[2-[(2-hydroxyethyl)amino]ethyl]amino]-2-[2-(methylamino)ethyl]anthra[1,9-cd]pyrazol-6(2H)-one]
response vs control in vivo at 12.5 mg/kg [2]: 147% | IC50 [1, 3]: 230 nM

CN(C)CCCn1nc2c3c(c(NCCN)ccc31)C(=O)c1c(O)ccc(O)c1-2 [Example 94, 5-[(2-Aminoethyl)amino]-2-[3-(dimethylamino)propyl]-7,10-dihydroxyanthra[1,9-cd]pyrazol-6(2H)-one]
zone of inhibition at 3000 µg/mL (Penicillium avellaneum): 0 mm | response vs control in vivo at 3.12 mg/kg [2]: 191% | response vs control in vivo at 6.25 mg/kg [2]: 186% | response vs control in vivo at 12.5 mg/kg [2]: 224% | zone of inhibition at 3000 µg/mL (Streptococcus faecalis): 0 mm | zone of inhibition at 3000 µg/mL (Aerobacter aerogenes): 15 mm | zone of inhibition at 3000 µg/mL (Escherichia coli): 15 mm | zone of inhibition at 3000 µg/mL (Bacillus subtilis): 0 mm
